Experimental data as given in ChEMBL document CHEMBL6182881, “Optimized ebselen derivatives as novel potent Escherichia coli β-glucuronidase covalent allosteric inhibitors” (Eur J Med Chem, 2025).
The source made the active and inactive calls. The rule behind the calls is not given here.

Tests used:
[1] = Covalent allosteric inhibition of recombinant Escherichia coli beta-glucuronidase using PNPG as substrate incubated for 30 mins by absorbance based microplate reader assay
Escherichia coli [2] = test: Covalent allosteric inhibition of recombinant Escherichia coli beta-glucuronidase using PNPG as substrate at 10 uM incubated for 30 mins by absorbance based microplate reader assay relative to control
[3] = Covalent inhibition of Escherichia coli beta-glucurodinase
[4] = Cytotoxicity against human HCT-116 cells assessed as cell viability at 5 uM incubated for 24 hrs by CCK-8 assay relative to control; type: toxicity, cell-based; settings: read-out: Activity
Escherichia coli [5] = test: Covalent irreversible binding affinity to recombinant Escherichia coli beta-glucuronidase using PNPG as substrate at 10 times IC50 pre-incubated for 30 mins followed by substrate addition by jump dilution assay
[6] = Covalent irreversible binding affinity to recombinant Escherichia coli beta-glucuronidase assessed as inhibition constant incubated for 30 mins
Escherichia coli [7] = test: Covalent binding affinity to recombinant Escherichia coli beta-glucuronidase at Cys197 residue by LC-MS/MS analysis
Escherichia coli [8] = test: Covalent irreversible binding affinity to recombinant Escherichia coli beta-glucuronidase assessed as kinact/ki ratio incubated for 30 mins
Escherichia coli [9] = test: Covalent irreversible binding affinity to recombinant Escherichia coli beta-glucuronidase assessed as inactivation constant incubated for 30 mins
[10] = Binding affinity to Escherichia coli beta-glucuronidase assessed as inhibition constant
[11] = Covalent reversible binding affinity to recombinant Escherichia coli beta-glucuronidase assessed as apparent inhibition constant incubated for 30 mins; settings: read-out: Ki(app)
Escherichia coli [12] = test: Potency index, ratio of IC50 for amoxapine to test compound IC50 for covalent allosteric inhibition of recombinant Escherichia coli beta-glucuronidase using PNPG as substrate incubated for 30 mins by absorbance based microplate reader assay
Escherichia coli [13] = test: Covalent binding affinity to recombinant Escherichia coli beta-glucuronidase at Cys443 residue by LC-MS/MS analysis
Escherichia coli [14] = test: Covalent binding affinity to recombinant Escherichia coli beta-glucuronidase at Cys28 residue by LC-MS/MS analysis
Escherichia coli [15] = test: Covalent reversible binding affinity to recombinant Escherichia coli beta-glucuronidase using PNPG as substrate at 10 times IC50 pre-incubated for 30 mins followed by substrate addition by jump dilution assay

SMILES	IC50 [1] [nM]	inhibition (Escherichia coli [2]) [%]	further results
Cn1cc(-n2[se]c3ccccc3c2=O)cn1	42.1	94.8	–
Oc1ccccc1-c1nc2cc(Cl)cc(Cl)c2[nH]1	–	–	IC50 [3]: 4.48 µM
CCc1nnc(-n2[se]c3ccccc3c2=O)s1	–	< 90	–
O=c1c2ccccc2[se]n1-c1nnc(CC(F)(F)F)s1	–	6.11	–
O=C(O)c1ccc(-n2[se]c3ccccc3c2=O)cc1	55.7	96.8	viability at 24 h, 5 µM [4]: 86.2%
O=c1c2ccccc2[se]n1-c1cccnc1	–	> 90	–
O=c1c2ccccc2[se]n1CC(F)(F)F	76.9	94.7	–
COC(=O)[C@H](CCCCNC(=O)OC(C)(C)C)n1[se]c2ccccc2c1=O	66.5	94.4	viability at 24 h, 5 µM [4]: 86.2%
O=c1c2ccccc2[se]n1-c1nnc(C(F)(F)F)s1	188	93.7	–
O=c1c2ccccc2[se]n1-c1cnc2[nH]ncc2c1	–	< 90	–
Cc1nnc(-n2[se]c3ccccc3c2=O)s1	–	< 90	–
O=c1c2ccccc2[se]n1-c1cc(C2CC2)[nH]n1	–	< 90	–
COC(=O)[C@H](Cc1c[nH]c2ccccc12)n1[se]c2ccccc2c1=O	–	> 90	–
CNC(=O)c1cc(Oc2ccc(-n3[se]c4ccccc4c3=O)cc2)ccn1	446	96.2	viability at 24 h, 5 µM [4]: 86.2%
O=c1c2ccccc2[se]n1-c1ccc(Cl)cc1	127	94.3	–
O=c1c2ccccc2[se]n1-c1ccc(C(F)(F)F)cc1	–	< 90	–
O=c1c2ccccc2[se]n1C1CCCCC1	–	< 90	–
O=c1c2ccccc2[se]n1-c1ccc2[nH]ccc2c1	–	> 90	–
O=c1c2ccccc2[se]n1-c1ccc(F)cc1	–	> 90	–
O=c1c2ccccc2[se]n1-c1nccs1	–	< 90	–
Cc1cc(-n2[se]c3ccccc3c2=O)n[nH]1	–	< 90	–
O=c1c2ccccc2[se]n1-c1nnc(C2CCCC2)s1	–	< 90	–
O=c1c2ccccc2[se]n1-c1ccccn1	–	< 90	–
COC(=O)[C@H](CC(C)C)NC(=O)Cn1[se]c2ccccc2c1=O	–	> 90	–
CC(=O)OC[C@H]1O[C@@H](n2cnc3c(-n4[se]c5ccccc5c4=O)ncnc32)[C@H](OC(C)=O)[C@@H]1OC(C)=O	73.4	98.8	Activity (Escherichia coli [5]): Active; Ki [6]: 5.95 µM; Activity (Escherichia coli [7]): Active; K (Escherichia coli [8]): 21300 M⁻¹ s⁻¹; viability at 24 h, 5 µM [4]: 81%; Kinact (Escherichia coli [9]): 7.6 min⁻¹
O=c1c2cc(Br)ccc2[se]n1-c1ccccc1	–	< 90	–

SMILES	IC50 [1] [nM]	inhibition (Escherichia coli [2]) [%]	further results
CCn1[se]c2ccccc2c1=O	–	< 90	–
COC(=O)[C@H](Cc1ccc(O)cc1)n1[se]c2ccccc2c1=O	21.2	96.9	viability at 24 h, 5 µM [4]: 86.2%
O=c1c2ccccc2[se]n1C12CC3CC(CC(C3)C1)C2	–	< 90	–
O=c1[nH][se]c2ccccc12	–	72.1	–
Clc1ccc2c(c1)C(N1CCNCC1)=Nc1ccccc1O2 [AMOXAPINE]	202	88.9	Ki [10]: 180 nM
Cc1nnc(-n2[se]c3ccccc3c2=O)o1	116	97.5	–
O=c1c2ccccc2[se]n1-c1ccc2[nH]ncc2c1	–	< 90	–
COC(=O)[C@H](CSC)n1[se]c2ccccc2c1=O	–	> 90	–
Cc1ccc2c(=O)n(Cc3ccccc3)[se]c2c1	–	< 90	–
O=c1c2ccccc2[se]n1-c1ncc(C(F)(F)F)cc1Cl	–	< 90	–
O=c1c2ccccc2[se]n1-c1nncs1	–	< 90	–
CC(C)c1nnc(-n2[se]c3ccccc3c2=O)s1	–	< 90	–
CC(C)(C)c1nnc(-n2[se]c3ccccc3c2=O)s1	–	> 90	–
O=c1c2ccccc2[se]n1CCO	18.3	96.2	viability at 24 h, 5 µM [4]: 86.2%
O=c1c2ccccc2[se]n1-c1nnc(C2CCC(F)(F)CC2)s1	–	< 90	–
C=CCCn1[se]c2ccccc2c1=O	–	< 90	–
CN(C)CCn1[se]c2ccccc2c1=O	–	> 90	–
COC(=O)c1ccc2c(=O)n(-c3cccc4cccnc34)[se]c2c1	63.4	98.4	–
COC(=O)[C@H](CO)n1[se]c2ccccc2c1=O	48.2	93.8	viability at 24 h, 5 µM [4]: 86.2%
O=c1c2ccccc2[se]n1-c1cn[nH]c1	12.9	98.3	Ki [11]: 23.3 nM; Ratio IC50 (Escherichia coli [12]): 15.6; Activity (Escherichia coli [7]): Active; Activity (Escherichia coli [13]): Active; Activity (Escherichia coli [14]): Active; Activity (Escherichia coli [15]): Active; viability at 24 h, 5 µM [4]: 71.5%
CN1CCC(n2[se]c3ccccc3c2=O)CC1	58.5	93.9	–
O=c1[nH][se]c2ccc(C(F)(F)F)cc12	–	< 90	–
CCCc1nnc(-n2[se]c3ccccc3c2=O)s1	–	< 90	–
COc1ccc(-n2[se]c3ccccc3c2=O)cc1	–	< 90	–
C=CCn1[se]c2ccccc2c1=O	–	> 90	–
O=c1c2ccccc2[se]n1-c1ccccc1	–	< 90	–
